In US7998971B2, “Combinations containing a 4-acylaminopyridine derivative” (BrainCells Inc., priority 2006, dated 2011):
Read-outs that look alike come from different tables or passages of the source. Blank lines part the entries; values can stand above or below the compound they belong to.

What was measured:
[1] = test system: human neural stem cells (hNSCs); assay: Neuronal differentiation of human neural stem cells (TUJ-1 staining, concentration response curves); assay type: cell-based; details: for EC50: Homo sapiens, Neural stem cell; for maximum neuronal differentiation percent of positive control: MKC-231 CRC 0.01-31.6 uM, azakenpaullone CRC 0.001-3.2 uM
From the text: Mitogen-free test media with a positive control for neuronal differentiation was used along with basal media without growth factors as a negative control. […]

[2] = biological target: acetylcholinesterase (AChE) (Homo sapiens, UniProt P22303); details: cited from earlier work
Sequence of acetylcholinesterase (AChE) (P22303 32-614, species assumed): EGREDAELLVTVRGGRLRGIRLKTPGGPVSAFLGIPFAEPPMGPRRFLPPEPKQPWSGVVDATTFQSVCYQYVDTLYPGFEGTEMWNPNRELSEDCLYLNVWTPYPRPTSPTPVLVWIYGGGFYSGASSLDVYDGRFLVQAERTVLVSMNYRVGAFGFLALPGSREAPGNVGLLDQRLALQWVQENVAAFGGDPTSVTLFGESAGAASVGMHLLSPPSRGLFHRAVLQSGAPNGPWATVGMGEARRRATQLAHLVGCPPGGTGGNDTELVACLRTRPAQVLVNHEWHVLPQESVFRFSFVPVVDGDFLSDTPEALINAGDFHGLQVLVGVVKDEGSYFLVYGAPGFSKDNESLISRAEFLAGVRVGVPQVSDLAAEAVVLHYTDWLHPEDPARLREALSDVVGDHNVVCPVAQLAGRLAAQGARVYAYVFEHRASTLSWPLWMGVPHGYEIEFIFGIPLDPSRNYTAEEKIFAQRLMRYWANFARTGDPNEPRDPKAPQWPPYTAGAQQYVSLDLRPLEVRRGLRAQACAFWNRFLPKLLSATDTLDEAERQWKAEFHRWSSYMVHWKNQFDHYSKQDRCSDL

mGlu7 and mGlu8 = details: above 1 μM; cited from earlier work
[3] = agent alone, hNSCs, percentage of neuronal positive control, basal media subtracted, read-out: EC50 of neuronal differentiation, agent used alone

EC50 ([1]; agent alone, hNSCs, extrapolated, read-out: EC50 of neuronal differentiation, agent used alone, estimated by extrapolation of the observed data): 4.4 µM
Structure (SMILES): C[C@]12CC[C@@H]3c4ccc(O)cc4CC[C@H]3[C@@H]1CC[C@@H]2O [estradiol]

Structure (SMILES): Cc1oc2nc3c(c(NC(=O)CN4CCCC4=O)c2c1C)CCCC3 [MKC-231, 2-(2-oxopyrrolidin-1-yl)-N-(2,3-dimethyl-5,6,7,8-tetrahydrofuro[2,3-b]-quinolin-4-yl)acetoamide]
EC50 [1, 3]: 8.6 µM | maximum neuronal differentiation percent of positive control ([1]; hNSCs): 53% | AChE inhibitory activity [2]: does not have such inhibitory activity

Structure (SMILES): Clc1ccc2c(c1)N=C(N1CCNCC1)c1ccccc1N2 [N-desmethylclozapine]
neurogenic activity ([1]; assays as disclosed herein): highly neurogenic

EC50 [1, 3]: 0.003 µM
Structure (SMILES): CC(C)c1c(C(=O)Nc2ccccc2)c(-c2ccccc2)c(-c2ccc(F)cc2)n1CC[C@@H](O)C[C@@H](O)CC(=O)O [atorvastatin]

Structure (SMILES): N[C@](CC1c2ccccc2Oc2ccccc21)(C(=O)O)[C@H]1C[C@@H]1C(=O)O [LY341495, (2S)-2-amino-2-(1S,2S-2-carboxycycloprop-1-yl)-3-(xanth-9-yl) propanoic acid]
activity against mGlu7 and mGlu8 at higher concentrations (mGlu7 and mGlu8): antagonist activity

Structure (SMILES): O=C1Cc2c([nH]c3ccc(Br)cc23)-c2ncccc2N1 [azakenpaullone]
maximum neuronal differentiation percent of positive control ([1]; hNSCs): 120%

Structure (SMILES): O=C1CC[C@@]2(O)[C@H]3Cc4ccc(O)c5c4[C@@]2(CCN3CC2CC2)[C@H]1O5 [naltrexone]
EC50 [1, 3]: 4.5 µM

EC50 [1, 3]: 3.6 µM
Structure (SMILES): CN(CCOc1ccc(CC2SC(=O)NC2=O)cc1)c1ccccn1 (stereo not drawn) [rosiglitazone]

Structure (SMILES): Cc1onc(O)c1CC(N)C(=O)O (stereo not drawn) [AMPA, α-amino-3-hydroxy-5-methylisoxazole-4-propionic acid]
effect on differentiation at 0.316 μM ([1]; AMPA alone at 0.316 μM): no effect | EC50 ([1]; read-out: EC50 of neuronal differentiation, agent used alone): ~31.6 µM
